Assay results reported in patent publication US5665760A, “Lyophilized thioxanthenone antitumor agents” (priority 1995, dated 1997).

Columns and labels:
Format in all cases: in vivo
[1] = test system: Mammary Adenocarcinoma 16/C/RP; assay: antitumor activity in mice against Mammary Adenocarcinoma 16/C/RP
Procedure: (§1) Representative examples of the invention were tested for antitumor activity in mice according to the following procedure:
(§2) The animals were pooled, implanted subcutaneously with 30 to 60 mg tumor fragments by 12-gauge trocar, and again pooled before unselective distribution to the various treatment and control groups. For early-stage treatment, chemotherapy was started within 1 to 5 days after tumor implantation while the number of cells was relatively small (10^7 to 10^8 cells). For advanced-stage treatment, chemotherapy was delayed until the tumor became relatively large (200 to 300 mg in size). A 300-mg tumor contains approximately 3×10^8 total cells. Tumors within a given advanced-stage trial were within a 2.5-fold size range for 90% of the animals. Tumors were measured with a caliper weekly (or twice weekly for the more rapidly growing tumors). Mice were sacrificed when their tumors reached 1500 mg (i.e., before they can cause the animal discomfort). Tumor weights were estimated from two-dimensional measurements.
(§3) The treatment and control groups were measured when the control group tumors reached approximately 700 to 1200 mg in size (Median of Group). The median tumor weight of each group was determined (including zeros). The T/C value (weight of treated tumors over the weight of control tumors) in percent is an indication of antitumor effectiveness: A T/C equal to or less than 42% is considered significant antitumor activity by the Drug Evaluation Branch of the Division of Cancer Treatment (NCl). A T/C value <10% is considered to indicate highly significant antitumor activity. A body weight loss nadir (mean of group) of greater than 20% or greater than 20% drug-deaths is considered to indicate an excessively toxic dosage.

[2] = test system: pancreatic ductal adenocarcinoma #03; assay: antitumor activity in mice against pancreatic ductal adenocarcinoma #03 (Panc 03); details: for Tumor Free: 245 days of observation
Procedure: as §1
as §2, with “Tumors within a given advanced-stage trial were within a 2.5-fold size range for 90% of the animals.” left out
(§4) The treatment and control groups were measured when the control group tumors reached approximately 700 to 1200 mg in size (Median of Group). The median tumor weight of each group was determined (including zeros). […] A T/C value <10% is considered to indicate highly significant antitumor activity.
(§5) The results are shown in Table I for pancreatic ductal adenocarcinoma #03 and in Table 2 for colon adenocarcinoma #38.

[3] = test system: P388/adriamycin resistant leukemia; assay: P388/adriamycin resistant leukemia, cells implanted i.v.
[4] = test system: Panc 02; assay: antitumor activity in mice against Panc 02; details: i.v. bolus days 1-4; for Tumor Free: 28 days of observation
Procedure: as §1, §2, §3

[5] = test system: colon adenocarcinoma #38; assay: antitumor activity in mice against colon adenocarcinoma #38
Procedure: as §1
as §2, with “Tumors within a given advanced-stage trial were within a 2.5-fold size range for 90% of the animals.” left out
as §4, §5

[6] = test system: Colon 51/A; assay: antitumor activity in mice against Colon 51/A; details: i.v. bolus days 3-6, 9, 11
Procedure: as §1
as §2, with “Tumors within a given advanced-stage trial were within a 2.5-fold size range for 90% of the animals.” left out
as §4

[7] = test system: Mammary 16/C; assay: antitumor activity in mice against Mammary 16/C; details: for Tumor Free: 23 days of observation
Procedure: as §1
as §2, with “Tumors within a given advanced-stage trial were within a 2.5-fold size range for 90% of the animals.” left out
as §4

[8] = test system: Human MX-1 Mammary; assay: antitumor activity in mice against Human MX-1 Mammary; details: i.v. days 1-6 (some changed to p.o.)
Procedure: as §1, §2, §3

[9] = 10^6 cells, 112 mg/kg total, i.v.→p.o. days 1, 4
[10] = 10^6 cells, 248 mg/kg total, i.v.→p.o. days 1, 4
[11] = 400 mg/kg total, i.v. infusion days 1, 4
[12] = 600 mg/kg total, i.v. infusion days 1, 4
[13] = 900 mg/kg total, i.v. infusion days 1, 4
[14] = Table 1, average body weight 25 g, total doses as in E1
[15] = 10^6 cells, 280 mg/kg total, i.v. 3 hour infusion day 1
[16] = 10^6 cells, 450 mg/kg total, i.v. 3 hour infusion day 1
[17] = 51 mg/kg total, i.v. bolus days 6-9
[18] = 82 mg/kg total, i.v. bolus days 6-9
[19] = Table 2, i.v., total dose mg/kg by Example: 6:82, 16(a):690, 18(e):120
[20] = 79 mg/kg total, i.v. bolus days 3-4, 6-14
[21] = 124 mg/kg total, i.v. bolus days 3-4, 6-14
[22] = 51 mg/kg total, i.v. bolus days 1-4
[23] = 82 mg/kg total, i.v. bolus days 1-4
[24] = 147 mg/kg total, i.v. days 3-7 (some changed to p.o.)
[25] = 220 mg/kg total, i.v. days 3-7 (some changed to p.o.)
[26] = 330 mg/kg total, i.v. days 3-7 (some changed to p.o.)
[27] = 155 mg/kg total, i.v. days 3-6 (some changed to p.o.)
[28] = 240 mg/kg total, i.v. days 3-6 (some changed to p.o.)
[29] = 420 mg/kg total, i.v. days 3-6 (some changed to p.o.)
[30] = 161 mg/kg total, i.v. days 1-4 (some changed to p.o.)
[31] = 242 mg/kg total, i.v. days 1-4 (some changed to p.o.)
[32] = 363 mg/kg total, i.v. days 1-4 (some changed to p.o.)

CCN(CC)CCNc1ccc(CNS(C)(=O)=O)c2sc3ccc(OC)cc3c(=O)c12 [31(c)]
T/C Value ([1]; 109.6 mg/kg total, i.v. 2X/day, days 3-6): 6% | T/C Value ([1]; 156.8 mg/kg total, i.v. 2X/day, days 3-6): 5% | T/C Value ([1]; 224 mg/kg total, i.v. 2X/day, days 3-6): 0% | Drug Deaths ([1]; mouse, in vivo): 0 | T/C [2]: 0% | Drug Deaths ([2]; Table 1, total doses as in E1): 0 | Weight Loss ([2]; mouse, in vivo): 5.6 g | % ILS (percentage increase in lifespan) [3, 9]: 0% | Log10 Tumor cell kill [3, 9]: 0 | Wt. Loss at Nadir [3, 9]: -2.7 g/mouse | % ILS (percentage increase in lifespan) [3, 10]: 0% | Log10 Tumor cell kill [3, 10]: 0 | Wt. Loss at Nadir [3, 10]: -3.0 g/mouse | Drug Deaths ([3]; mouse, in vivo, 112 mg/kg): 0/6 | Drug Deaths ([3]; mouse, in vivo, 248 mg/kg): 1/6

CCN(CC)CCNc1ccc(CNC)c2sc3ccc(OC)cc3c(=O)c12 [Example 30(h), 1-[[2-(Diethylamino)ethyl]amino]-4-[(methylamino)methyl]-7-methoxy-thioxanthen-9-one]
Drug Deaths [1, 11]: 0/5 | T/C Value [1, 11]: 46% | Wt. Loss at Nadir [1, 11]: -1.0 g/mouse | Drug Deaths [1, 12]: 0/5 | T/C Value [1, 12]: 23% | Wt. Loss at Nadir [1, 12]: -0.7 g/mouse | Drug Deaths [1, 13]: 1/6 | T/C Value [1, 13]: 29% | Wt. Loss at Nadir [1, 13]: 0 g/mouse | T/C [2]: 0% | Weight Loss [2, 14]: 1.4 g | Drug Deaths ([2]; Table 1, total doses as in E1): 0 | Drug Deaths [3, 15]: 0/7 | Wt. Loss at Nadir [3, 15]: -1.7 g/mouse | Drug Deaths [3, 16]: 0/7 | Wt. Loss at Nadir [3, 16]: -2.3 g/mouse | % ILS (percentage increase in lifespan) ([3]; iv, 280 mg/kg): 69% | Log10 Tumor cell kill ([3]; iv, 280 mg/kg): 6.0 | Tumor Cell ([3]; iv, 280 mg/kg): 2/7 | % ILS (percentage increase in lifespan) ([3]; iv, 450 mg/kg): 62% | Log10 Tumor cell kill ([3]; iv, 450 mg/kg): 5.3 | Tumor Cell ([3]; iv, 450 mg/kg): 0/7

CCN(CC)CCNc1ccc(CNS(C)(=O)=O)c2sc3ccccc3c(=O)c12 [Example 6, N-[[1-[[2-(Diethylamino)ethyl]amino]-9-oxothioxanthen4-yl]methyl]methanesulfonamide]
T/C Value ([4]; 51 mg/kg total): 42% | Wt. Loss at Nadir ([4]; 51 mg/kg total): -1.2 g/mouse | Tumor Free ([4]; 51 mg/kg total): 0/5 | T/C Value ([4]; 82 mg/kg total): 23% | Wt. Loss at Nadir ([4]; 82 mg/kg total): -2.0 g/mouse | Tumor Free ([4]; 82 mg/kg total): 0/5 | T/C Value [5, 17]: 18% | Wt. Loss at Nadir [5, 17]: -1.2 g/mouse | T/C Value [5, 18]: 1% | Wt. Loss at Nadir [5, 18]: -1.7 g/mouse | Drug Deaths ([5]; Table 2, i.v., total dose mg/kg by Example: 2:600, 5:960, 6:132, 7:840, 16(a):1000, 18(e):180): 3/7 | Drug Deaths [5, 19]: 1/7 | Weight Loss [5, 19]: 1.7 g | Weight Loss ([5]; mouse, in vivo, iv): 5.0 g | T/C Value [2, 20]: 0% | Wt. Loss at Nadir [2, 20]: -1.0 g/mouse | Tumor Free [2, 20]: 1/5 | T/C Value [2, 21]: 0% | Wt. Loss at Nadir [2, 21]: -1.6 g/mouse | Tumor Free [2, 21]: 3/5 | Weight Loss [2, 14]: 1.6 g | Drug Deaths ([2]; Table 1, total doses as in E1): 0 | T/C Value ([6]; 66 mg/kg total): 28% | Wt. Loss at Nadir ([6]; 66 mg/kg total): -2.3 g/mouse | T/C Value ([6]; 96 mg/kg total): 14% | Wt. Loss at Nadir ([6]; 96 mg/kg total): -3.0 g/mouse | T/C Value [7, 22]: 13% | Wt. Loss at Nadir [7, 22]: -1.2 g/mouse | Tumor Free [7, 22]: 0/5 | T/C Value [7, 23]: 6% | Wt. Loss at Nadir [7, 23]: -3.0 g/mouse | Tumor Free [7, 23]: 0/5

CCN(CC)CCNc1ccc(CNC(=O)OC)c2sc3ccc(OC)cc3c(=O)c12 [Example 36]
Drug Deaths ([8]; 132 mg/kg total): 0 | T/C Value ([8]; 132 mg/kg total): 27% | Wt. Loss at Nadir ([8]; 132 mg/kg total): -0.8 g/mouse | Drug Deaths ([8]; 297 mg/kg total): 0 | T/C Value ([8]; 297 mg/kg total): 39% | Wt. Loss at Nadir ([8]; 297 mg/kg total): -2.4 g/mouse | Drug Deaths [5, 24]: 0 | T/C Value [5, 24]: 0% | Wt. Loss at Nadir [5, 24]: 0 g/mouse | Drug Deaths [5, 25]: 0 | T/C Value [5, 25]: 0% | Wt. Loss at Nadir [5, 25]: -0.8 g/mouse | Drug Deaths [5, 26]: 0 | T/C Value [5, 26]: 0% | Wt. Loss at Nadir [5, 26]: -3.2 g/mouse | Drug Deaths [2, 27]: 0 | T/C Value [2, 27]: 0% | Wt. Loss at Nadir [2, 27]: -0.4 g/mouse | Drug Deaths [2, 28]: 0 | T/C Value [2, 28]: 0% | Wt. Loss at Nadir [2, 28]: -0.4 g/mouse | Drug Deaths [2, 29]: 3/5 | T/C Value [2, 29]: 0% | Wt. Loss at Nadir [2, 29]: -5.6 g/mouse | Weight Loss [2, 14]: 0.4 g | Drug Deaths ([2]; Table 1, total doses as in E1): 0 | Drug Deaths [7, 30]: 0 | T/C Value [7, 30]: 9% | Wt. Loss at Nadir [7, 30]: -0.4 g/mouse | Drug Deaths [7, 31]: 1/5 | T/C Value [7, 31]: 8% | Wt. Loss at Nadir [7, 31]: -1.2 g/mouse | Drug Deaths [7, 32]: 2/5 | T/C Value [7, 32]: 2% | Wt. Loss at Nadir [7, 32]: -2.4 g/mouse
